# Columns and labels:
# HSV-1 (strain C42) [1] = experiment: Plaque reduction assay, inhibition of HSV-1 multiplication in Vero cells; type: cell-based, Herpes simplex type 1 virus; conditions: read-out: Inhibition (%)/Conc. (μM), HSV-1 in Vero cells; for inhibition at 1 µM: Human alphaherpesvirus 1, 1 μM
# HSV-1 (strain C42) [2] = experiment: Plaque reduction assay, inhibition of HSV-1 multiplication in HEL cells; type: cell-based, Herpes simplex type 1 virus; conditions: Human alphaherpesvirus 1, HEL (human embryonic lung) cells, read-out: HSV-1 in HEL cells ID50
# HSV-1 thymidine kinase = HSV-1 thymidine kinase (Human herpesvirus 1, UniProt P0DTH5); experiment: biochemical; conditions: for Ki: HSV-1 thymidine kinase, read-out: Inhibition constant Ki
# Chain of HSV-1 thymidine kinase (P0DTH5 whole entry): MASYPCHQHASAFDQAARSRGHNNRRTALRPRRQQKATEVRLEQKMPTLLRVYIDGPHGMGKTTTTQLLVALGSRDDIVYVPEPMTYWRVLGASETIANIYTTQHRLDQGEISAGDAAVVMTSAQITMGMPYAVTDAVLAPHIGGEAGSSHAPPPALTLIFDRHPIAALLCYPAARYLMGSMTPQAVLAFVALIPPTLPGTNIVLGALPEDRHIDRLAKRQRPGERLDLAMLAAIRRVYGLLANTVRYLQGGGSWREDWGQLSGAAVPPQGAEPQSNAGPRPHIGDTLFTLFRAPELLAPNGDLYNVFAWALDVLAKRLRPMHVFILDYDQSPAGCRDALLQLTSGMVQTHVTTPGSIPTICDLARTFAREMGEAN
# [3] = Cellular toxicity, reduction in growth of human embryonic cells; conditions: flow 1000 cells
# [4] = test system: cutaneous herpesvirus infection; experiment: Cutaneous herpesvirus infection on guinea pigs, topical treatment; type: in vivo
# Protocol: Thirty μl of solution or solvent was added topically 3 times per day for 4 days starting 24 h post inoculation.
# HSV-1 (C42) = experiment: Systemic (i.p.) HSV-1 infection in mice; type: in vivo; conditions: treated animals
# HSV-2 (strain 91075) = experiment: Systemic (i.p.) HSV-2 infection in mice; type: in vivo; conditions: treated animals
# VZV (several strains) = experiment: Inhibition of VZV multiplication in HL cells, late antigens by ELISA; type: cell-based, Varicella zoster virus
# Protocol: I. Inhibition of virus multiplication in cell cultures
# Virol. 2 357 (1968). The effect on VZV (several strains) multiplication in HL (human lung fibroblast) cells by VSA 671 was determined by measuring the formation of late antigens by the ELISA technique as described by B. Wahren et al., J. Virological Methods 6, 141-149 (1983).
# [5] = 25 mg/kg i.p. twice daily 5 days, untreated 90, 21 days
# [6] = 50 mg/kg i.p. twice daily 5 days, untreated 90, 21 days
Compound,"inhibition at 10 µM (HSV-1 (strain C42) [1]; Human alphaherpesvirus 1, 10 μM)",IC50 (HSV-1 (strain C42) [2]),Ki (HSV-1 thymidine kinase),"inhibition at 48 h, 200 µM [3]",inhibition at 1 µM (HSV-1 (strain C42) [1]),"Percent reduction in cumulative score as compared to placebo treatment ([4]; 2.5% in dimethylsulfoxide, 30 μl topically 3 times per day for 4 days starting 24 h post inoculation)",Therapeutic effect on cutaneous herpesvirus infections (in words) ([4]; topical),"Cumulative mortality (%) (treated/untreated) (HSV-1 (C42); 5 mg/kg i.p. twice daily 5 days, untreated 80, 21 days)","Cumulative mortality (%) (treated/untreated) (HSV-1 (C42); 10 mg/kg i.p. twice daily 5 days, untreated 80, 21 days)","Cumulative mortality (%) (treated/untreated) (HSV-2 (strain 91075); 5 mg/kg i.p. twice daily 5 days, untreated 90, 21 days)","Cumulative mortality (%) (treated/untreated) (HSV-2 (strain 91075); 10 mg/kg i.p. twice daily 5 days, untreated 90, 21 days)",Cumulative mortality (%) (treated/untreated) (HSV-2 (strain 91075); [5]),"Cumulative mortality (%) (treated/untreated) (HSV-2 (strain 91075); 50 mg/kg i.p. twice daily 5 days, untreated 100, 21 days)","inhibition at 25 µM (HSV-1 (strain C42) [1]; Human alphaherpesvirus 1, 25 μM)","IC50 (VZV (several strains); Human alphaherpesvirus 3, HL (human lung fibroblast) cells, several strains, late antigens by ELISA, read-out: VZV in HL cells ID50)",Effect against varicella zoster virus multiplication (VZV (several strains); in words),Affinity for viral thymidine kinase (in words) (HSV-1 thymidine kinase),Cumulative mortality (%) (treated/untreated) (HSV-1 (C42); [5]),Cumulative mortality (%) (treated/untreated) (HSV-1 (C42); [6]),Cumulative mortality (%) (treated/untreated) (HSV-2 (strain 91075); [6])
"Nc1nc2c(ncn2C/C=C\CO)c(=O)[nH]1 [VSA 151, cis-9-(4-hydroxy-2-butenyl)guanine]",> 90%,600 nM,7000 nM,0%,–,–,–,–,–,–,–,–,–,–,–,–,–,–,–,–
"Nc1nc2c(ncn2CCC(CO)CO)c(=O)[nH]1 [VIS 873, 9-[4-hydroxy-3-(hydroxymethyl)butyl]guanine]",–,400 nM,1500 nM,7%,> 90%,36%,had a therapeutic effect on cutaneous herpesvirus infections when applied topically,30%,0%,70%,20%,0%,10%,–,–,–,–,–,–,–
"Nc1nc2c(ncn2CC=C(CO)CO)c(=O)[nH]1 [VSA 668, 9-[4-hydroxy-3-(hydroxymethyl)-2-butenyl]guanine]",–,–,25000 nM,0%,–,–,–,–,–,–,–,–,–,> 90%,–,–,–,–,–,–
"Nc1nc2c(ncn2CC(CO)CCO)c(=O)[nH]1 (stereo not drawn) [VSA 671, 9-[4-hydroxy-2-(hydroxymethyl)butyl]guanine]",–,200 nM,600 nM,18%,> 90%,–,–,–,–,–,–,40%,–,–,1300 to 2500 nM,very good effect against varicella zoster virus multiplication,"affinity close to that of the natural substrate, thymidine",30%,30%,30%

# Source: patent publication US4798833A, “Guanine derivative” (priority 1983, dated 1989)
